According to patent US8835421B2, “Benzimidazole linked pyrrolo[2,1-c[1,4] benzodiazepine hybrids as potential antitumour agents and process for the preparation thereof” (Council of Scientific and Industrial Research, priority 2008, dated 2014):

Legend:
[1] = tested on: calf thymus DNA (CT-DNA); assay: Thermal denaturation studies with duplex-form calf thymus DNA; assay type: binding; conditions: [PBD]:[DNA] 1:5, CT-DNA 100 μM, ligand 20 μM, sodium phosphate buffer pH 7.00; for ΔTm after incubation at 37° C. for 0 h: 0 h incubation at 37° C.; for ΔTm after incubation at 37° C. for 18 h: 18 h incubation at 37° C.
Description: Compounds have been subjected to thermal denaturation studies with duplex-form calf thymus DNA (CT-DNA) using an modification of a reported procedure (Newman, M. S. Carcinog-compr. Surv. 1976, 1, 203; (b) Hecht, S. S.; Loy, M.; Hoffman, Carcinog-compr. Surv. 1976, 1, 325). Working solutions in aqueous buffer (10 mM NaH2PO4/Na2HPO4, 1 mM Na2EDTA, pH 7.00+0.01) containing CT-DNA (100 μm in phosphate) and the PBD (20 μm) have been prepared by addition of concentrated PBD solutions in DMSO to obtain a fixed [PBD]/[DNA] molar ratio of 1:5. The DNA-PBD solutions have been incubated at 37° C. for 0 and 18 h prior to analysis. Samples have been, monitored at 260 nm using a Beckman DU-800 spectrophotometer fitted with high performance temperature controller, and heated at 1° C. min^−1 in the 40-110° C. range. DNA helix→coil transition temperatures (Tm) have been obtained from the maxima in the d(A260)/d T derivative plots. Drug-induced alterations in DNA melting behavior are given by: ΔTm=Tm(DNA+PBD)−Tm(DNA alone), where the Tm value for the PBD-free CT-DNA is 69.1±0.01.
The DNA binding activity for these novel C8-linked benzimidazole-PBD hybrids has been examined by thermal denaturation studies using calf thymus (CT) DNA. […] The data for the compounds 8a-g, 11a-d and 14 is included in Table 1 for comparison.

[2] = tested on: sixty human tumour cells; assay: NCI in vitro anticancer screen (SRB, 48 h), mean graph midpoints over all cell lines; assay type: cell-based; conditions: 48 h continuous drug exposure, SRB assay; for Log10LC50 mean graph midpoint (MG_MID): 50% cell death; for Log10GI50 mean graph midpoint (MG_MID): 50% cell growth inhibition; for Log10TGI mean graph midpoint (MG_MID): total cell growth inhibition
Description: (§1) Anticancer activity: In vitro biological activity studies were carried out at the National Cancer Institute (USA).
(§2) The compounds were evaluated for in vitro anticancer activity against sixty human tumour cells derived from nine cancer types (leukemia, non-small-cell lung, colon, CNS, melanoma, ovarian, prostate, and breast cancer) as shown in Table 3. For each compound, dose response curves for each cell line were measured at a minimum of five concentrations at 10 fold dilutions. A protocol of 48 h continuous drug exposure was used and a sulforhodamine B (SRB) protein assay was used to estimate cell viability or growth. The concentration causing 50% cell growth inhibition (GI50), total cell growth inhibition (TGI 0% growth) and 50% cell death (LC50, −50% growth) compared with the control was calculated. The mean graph midpoint values of log10 TGI and log10 LC50 as well as log10 GI50 for 8c, 8e, 11a, 11c and 14 are listed in Table 2.

[3] = tested on: Breast cancer cell lines; assay: NCI in vitro anticancer screen (SRB, 48 h), breast; assay type: cell-based, human; conditions: average of six to nine cell lines; for GI50: Homo sapiens, read-out: Log10 GI50 (converted)
Description: as §1, §2
(§3) Each cancer type represents the average of six to nine different cancer cell lines.

[4] = tested on: Renal cancer cell lines; assay: NCI in vitro anticancer screen (SRB, 48 h), renal; assay type: cell-based, human; conditions: average of six to nine cell lines; for GI50: Homo sapiens, read-out: Log10 GI50 (converted)
Description: as §1, §2, §3

[5] = tested on: Leukemia cancer cell lines; assay: NCI in vitro anticancer screen (SRB, 48 h), leukemia; assay type: cell-based, human; conditions: average of six to nine cell lines; for GI50: Homo sapiens, read-out: Log10 GI50 (converted)
Description: as §1, §2, §3

[6] = tested on: CNS cancer cell lines; assay: NCI in vitro anticancer screen (SRB, 48 h), CNS; assay type: cell-based, human; conditions: average of six to nine cell lines; for GI50: Homo sapiens, read-out: Log10 GI50 (converted)
Description: as §1, §2, §3

[7] = tested on: Melanoma cancer cell lines; assay: NCI in vitro anticancer screen (SRB, 48 h), melanoma; assay type: cell-based, human; conditions: average of six to nine cell lines; for GI50: Homo sapiens, read-out: Log10 GI50 (converted)
Description: as §1, §2, §3

[8] = tested on: Non-small-cell-lung cancer cell lines; assay: NCI in vitro anticancer screen (SRB, 48 h), non-small-cell lung; assay type: cell-based, human; conditions: average of six to nine cell lines; for GI50: Homo sapiens, read-out: Log10 GI50 (converted)
Description: as §1, §2, §3

[9] = tested on: Colon cancer cell lines; assay: NCI in vitro anticancer screen (SRB, 48 h), colon; assay type: cell-based, human; conditions: average of six to nine cell lines; for GI50: Homo sapiens, read-out: Log10 GI50 (converted)
Description: as §1, §2, §3

[10] = tested on: Ovarian cancer cell lines; assay: NCI in vitro anticancer screen (SRB, 48 h), ovarian; assay type: cell-based, human; conditions: average of six to nine cell lines; for GI50: Homo sapiens, read-out: Log10 GI50 (converted)
Description: as §1, §2, §3

[11] = tested on: Prostate cancer cell lines; assay: NCI in vitro anticancer screen (SRB, 48 h), prostate; assay type: cell-based, human; conditions: average of six to nine cell lines; for GI50: Homo sapiens, read-out: Log10 GI50 (converted)
Description: as §1, §2, §3

`COc1cc2c(cc1OCCCCn1c(-c3ccco3)nc3ccccc31)N=C[C@@H]1CCCN1C2=O` [Compound 8b, 7-Methoxy-8-{4-[2-(2-furyl)-1H-benzimidazol-1-yl]butyl}oxy-(11aS)-1,2,3,11a-tetrahydro-5H-pyrrolo[2,1-c][1,4]benzodiazepin-5-one] was tested, and the “ΔTm after incubation at 37° C. for 0 h” value [1] was 0.1 °C and the “ΔTm after incubation at 37° C. for 18 h” value [1] was 1.0 °C.
In the case of `COC(=O)c1ccc2nc(-c3cn(C)c4ccccc34)n(CCCCOc3cc4c(cc3OC)C(=O)N3CCC[C@H]3C=N4)c2c1` [Compound 14, Methyl-1-[(4-(11aS)-7-methoxy-1,2,3,11a-tetrahydro-5H-pyrrolo[2,1-c][1,4]benzodiazepin-5-one-8-yl)oxybutyl]-2-(1-methyl-3-indolyl)benzimidazol-6-carboxylate], the “Log10LC50 mean graph midpoint (MG_MID)” value [2] is reported as −4.92, the “Log10GI50 mean graph midpoint (MG_MID)” value [2] is reported as −6.19 and the “Log10TGI mean graph midpoint (MG_MID)” value [2] is reported as −5.65. The “Log10 GI50” value [3] was −6.14 mol/L, the “Log10 GI50” value [4] was −6.10 mol/L and the “Log10 GI50” value [5] was −6.88 mol/L. The “ΔTm after incubation at 37° C. for 0 h” value [1] was 1.5 °C, the “ΔTm after incubation at 37° C. for 18 h” value [1] was 2.0 °C and the “Log10 GI50” value [6] was −6.00 mol/L. The “Log10 GI50” value [7] was −6.27 mol/L, the “Log10 GI50” value [8] was −6.08 mol/L and the “Log10 GI50” value [9] was −6.04 mol/L. For the same compound, the “Log10 GI50” value [10] was −6.04 mol/L and the “Log10 GI50” value [11] was −6.62 mol/L.
`COc1cc2c(cc1OCCCCCn1c(-c3cccs3)nc3ccccc31)N=C[C@@H]1CCCN1C2=O` [Compound 8f, 7-Methoxy-8-{5-[2-(2-thienyl)-1H-benzimidazol-1-yl]pentyl}oxy-(11aS)-1,2,3,11a-tetrahydro-5H-pyrrolo[2,1-c][1,4]benzodiazepin-5-one] was tested, and the “ΔTm after incubation at 37° C. for 0 h” value [1] was 6.1 °C and the “ΔTm after incubation at 37° C. for 18 h” value [1] was 6.1 °C.
For `CCOC(=O)c1ccc2nc(-c3ccc(OCc4ccccc4)cc3)n(CCCCCOc3cc4c(cc3OC)C(=O)N3CCC[C@H]3C=N4)c2c1` [Compound 11d, Ethyl-2-[4-(benzyloxy)phenyl]-[(5-(11aS)-7-methoxy-1,2,3,11a-tetrahy-dro-5H-pyrrolo[2,1-c][1,4]benzodiazepin-5-one-8-yl)oxypentyl]-2-benzimidazol-6-carboxylate], the “ΔTm after incubation at 37° C. for 0 h” value [1] was 2.0 °C and the “ΔTm after incubation at 37° C. for 18 h” value [1] was 3.0 °C.
In the case of `COc1cc2c(cc1OCCCn1c(-c3ccco3)nc3ccccc31)N=C[C@@H]1CCCN1C2=O` [Compound 8a, 7-Methoxy-8-{3-[2-(2-furyl)-1H-benzimidazol-1-yl]propyl}oxy-(11aS)-1,2,3,11a-tetrahydro-5H-pyrrolo[2,1-c][1,4]benzodiazepin-5-one], the “ΔTm after incubation at 37° C. for 0 h” value [1] is reported as 5.1 °C and the “ΔTm after incubation at 37° C. for 18 h” value [1] is reported as 6.1 °C.
`COc1cc2c(cc1OCCCn1c(-c3ccccn3)nc3ccccc31)N=C[C@@H]1CCCN1C2=O` [Compound 11a, 7-Methoxy-8-{3-[2-(2-pyridyl)-1H-benzimidazol-1-yl]propyl}oxy-(11aS)-1,2,3,11a-tetrahydro-5H-pyrrolo[2,1-c][1,4]benzodiazepin-5-one] was tested, and the “Log10LC50 mean graph midpoint (MG_MID)” value [2] was −4.42, the “Log10GI50 mean graph midpoint (MG_MID)” value [2] was −5.75 and the “Log10TGI mean graph midpoint (MG_MID)” value [2] was −5.14. For the same compound, the GI50 [3] was 1050 nM, the GI50 [4] was 1410 nM and the GI50 [5] was 3090 nM. The “ΔTm after incubation at 37° C. for 0 h” value [1] was 3.0 °C, the “ΔTm after incubation at 37° C. for 18 h” value [1] was 4.2 °C and the GI50 [6] was 2510 nM. The GI50 [7] was 2190 nM, the GI50 [8] was 1580 nM and the GI50 [9] was 1910 nM. For the same compound, the GI50 [10] was 1620 nM and the GI50 [11] was 1350 nM.
`COc1cc2c(cc1OCCCCCn1c(-c3ccco3)nc3ccccc31)N=C[C@@H]1CCCN1C2=O` [Compound 8c, 7-Methoxy-8-{5-[2-(2-furyl)-1H-benzimidazol-1-yl]pentyl}oxy-(11aS)-1,2,3,11a-tetrahydro-5H-pyrrolo[2,1-c][1,4]benzodiazepin-5-one] was tested, and the “Log10LC50 mean graph midpoint (MG_MID)” value [2] was −4.60, the “Log10GI50 mean graph midpoint (MG_MID)” value [2] was −7.91 and the “Log10TGI mean graph midpoint (MG_MID)” value [2] was −6.89. It also gave a GI50 [3] of less than 16.2 nM, a GI50 [4] of less than 12 nM and a GI50 [5] of less than 10 nM. The “ΔTm after incubation at 37° C. for 0 h” value [1] was 5.1 °C, the “ΔTm after incubation at 37° C. for 18 h” value [1] was 7.0 °C and the GI50 [6] was less than 10 nM. The GI50 [7] was less than 12 nM, the GI50 [8] was less than 12 nM and the GI50 [9] was less than 12 nM. It also gave a GI50 [10] of less than 10 nM and a GI50 [11] of less than 22.9 nM.
